Where “and” joins values, the source holds several entries; their conditions need not be identical. Identical values can stand only once.
Legend:
physchem = test: physchem
In short: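 Solubility at pH 7.4 determined by stepwise addition of 200 mM phosphate buffer in 100 μL increments to 3 mg peptide, mixing briefly each time, until no insoluble material remained, then measured by liquid chromatography.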

female beagle dogs = test: PYY-1119-induced vomiting in dogs; assay type: in vivo; details: 3 nmol/kg s.c., 72 hours post-dose (lower line)
Description: The GIPR agonist peptide compounds of the present disclosure or vehicle (0.09% [w/v] Tween 80/10% DMSO/PBS) were administered subcutaneously (sc) at 3-10 nmol/kg to female beagle dogs (10 months old), followed by sc injections with Y2R agonist ((4-imidazolecarbonyl-Ser-D-Hyp-Iva-Pya(4)-Cha-Leu(Me)-Asn-Lys-Aib-Thr-Arg-Gln-Arg-Cha-NH2), […]), […]) at 1 hour or specified hours in the table postdose. Emetic episodes were counted for 2 hours after administration (by blinded analysis).

human GLP-1R = target: T1, human GLP-1R (Homo sapiens, UniProt P43220); test: Human GLP1R agonist activity, intracellular cAMP accumulation; assay type: cell-based; details: HEK-293T cells overexpressing human GLP-1R, 1 hr, read-out: Human GLP1R cAMP EC50, HEK293T
T1 construct: HEK-293T cells overexpressing full-length human GLP-1R; FLAG (N); host or cells: HEK-293T
T1 sequence (P43220 24-463): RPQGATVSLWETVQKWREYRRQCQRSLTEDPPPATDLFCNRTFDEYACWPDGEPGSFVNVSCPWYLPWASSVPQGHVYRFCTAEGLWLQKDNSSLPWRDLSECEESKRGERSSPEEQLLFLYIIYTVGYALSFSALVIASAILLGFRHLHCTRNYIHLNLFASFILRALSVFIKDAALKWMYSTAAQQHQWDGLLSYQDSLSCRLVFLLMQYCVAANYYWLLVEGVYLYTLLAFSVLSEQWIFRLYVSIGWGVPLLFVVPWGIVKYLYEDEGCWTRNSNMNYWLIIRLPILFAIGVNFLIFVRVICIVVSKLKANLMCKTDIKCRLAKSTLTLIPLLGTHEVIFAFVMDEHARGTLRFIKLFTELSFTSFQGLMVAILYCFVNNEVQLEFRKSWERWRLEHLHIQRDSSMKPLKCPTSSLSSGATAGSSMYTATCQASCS
In short: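 cAMP accumulation is measured by HTRF after a 1 hr, room-temperature, dark exposure of thawed cells (4×10^5 cells/mL in Krebs Ringer buffer) to compound. Activity is scaled between DMSO alone as 0% and 1 nm GLP-1 as 100%.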

[1] = Dog plasma protein binding (PPB); assay type: in vitro ADME; details: dog, serum, pH 7.4
In short: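 Fraction unbound (Fu,plasma) is given as a percentage. It was measured with the method and analysis of the human protein-binding protocol, but using dog serum in place of human serum.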

[2] = Pharmacokinetics in dog after IV and SC dosing; details: in vivo, 3 nmol/kg
In short: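 Dogs were dosed IV or SC at 1 mL/kg with peptide at 3 nmol/mL in 10% DMSO/0.09% Polysorbate/PBS pH 7.4. K2-EDTA plasma was sampled to 336 h, and peptide was quantified by LCMS to derive half-life.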

C57BL/6J mice = test: Oral glucose tolerance test (OGTT); assay type: in vivo; details: 3 nmol/kg s.c., 24 hours before glucose loading
In short: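 Peptide or vehicle given s.c. at 0.1, 0.3, 3 or 10 nmol/kg (peptide-dependent), 24 h before oral 50% dextrose at 5 ml/kg unless stated otherwise. Blood glucose read at 0, 15, 30 and 60 min. % inhibition = (1−(AUC cpd−AUC naïve)/(AUC veh−AUC naïve))×100.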

male ferrets = assay type: in vivo
Description: 1. Effect of subcutaneously administered GIP receptor agonist peptide in morphine-induced acute emetic model.
To evaluate the antiemetic effect, the GIP receptor agonist peptides other than natural human GIP are subcutaneously administered into male ferrets 24 hrs before morphine administration. Up to 60 minutes after morphine administration, the condition of the ferrets is monitored to record the frequencies and time points of abdominal contraction motions, vomiting behaviors, licking with the tongue, and fidgety behavior occurring. GIP receptor agonist peptide compounds of the present disclosure dosed at 0.3-10 nmol/kg attenuated the morphine (0.6 mg/kg, s.c.)-induced emesis in the ferrets.
GIP receptor agonist peptides are dissolved with a vehicle (0.09 w/v % tween 80/10% DMSO/saline), respectively, to prepare test solutions. […] of the test solutions and the vehicle are subcutaneously administered to ferrets (4 in each group), respectively. At the time of each of 4 or 24 hours after administration, 0.6 mg/kg of morphine is subcutaneously administered.

CC[C@H](C)[C@H](NC(=O)[C@H](CO)NC(=O)[C@H](Cc1ccc(O)cc1)NC(=O)[C@H](CC(=O)O)NC(=O)[C@H](CO)NC(=O)[C@@H](NC(=O)[C@H](Cc1ccccc1)NC(=O)[C@@H](NC(=O)CNC(=O)[C@H](CCC(=O)O)NC(=O)C(C)(C)NC(=O)[C@H](Cc1ccc(O)cc1)NC)[C@@H](C)O)[C@@H](C)CC)C(=O)N[C@@H](C)C(=O)N[C@@H](CC(C)C)C(=O)N[C@@H](CC(=O)O)C(=O)N[C@@H](CCCNC(=N)N)C(=O)N[C@@H](CCCCNC(=O)CNC(=O)CNC(=O)CNC(=O)CNC(=O)CNC(=O)CCCCCCCCCCCCCCCCC(=O)O)C(=O)N[C@@H](C)C(=O)N[C@@H](CCC(N)=O)C(=O)NC(C)(C)C(=O)N[C@@H](CC(=O)O)C(=O)N[C@@H](Cc1ccccc1)C(=O)N[C@H](C(=O)N[C@@H](CC(N)=O)C(=O)N[C@@H](Cc1c[nH]c2ccccc12)C(=O)N[C@@H](CC(C)C)C(=O)N[C@@H](CC(C)C)C(=O)N[C@@H](C)C(=O)N[C@@H](CCC(N)=O)C(=O)N[C@@H](CO)C(=O)N1CCC[C@H]1C(=O)N[C@@H](CO)C(=O)N[C@@H](CO)C(=O)NCC(=O)N[C@@H](C)C(=O)N1CCC[C@H]1C(=O)N1CCC[C@H]1C(=O)N1CCC[C@H]1C(=O)N[C@@H](CO)C(N)=O)C(C)C [Compound 50, Me-Y-Aib-E-G-T-F-I-S-D-Y-S-I-A-L-D-R-Km-A-Q-Aib-D-F-V-N-W-L-L-A-Q-S-P-S-S-G-A-P-P-P-S-NH2]
solubility (physchem; pH 7.4): ≥ 15 mg/mL | solubility (physchem; pH 7.4, aqueous buffer): ≥ 60 mg/mL | Inhibition (%) of PYY-1119-induced emetic event (female beagle dogs): 97% (3 nmol/kg) | EC50 (human GLP-1R): 0.0204 µM | fraction unbound at 30 min, 1000 nmol/L [1]: 0.0006 | half-life ([2]; iv): 74 h | MRT last ([2]; sc): 103 h | Oral Glucose Tolerance Test Percent decrease in blood glucose AUC (%) over 60 mins (C57BL/6J mice): 89% and 69% | % inhibition of emetic events at doses (nmol/kg) and timepoints shown in ferret morphine model (male ferrets; 4 hrs, 0.3 nmol/kg s.c.): 4 hrs: 27% (0.3 nmol/kg); | effect on morphine-induced emesis in ferrets (in words) (male ferrets; morphine 0.6 mg/kg s.c., peptides dosed at 0.3-10 nmol/kg s.c.): effective in completely inhibiting the frequency of emesis
